Data on eight compounds can be found in patent US9662310B2, “Cyclopropanecarboxylic acid derivative” (DAIICHI SANKYO COMPANY, LIMITED, priority 2010, dated 2017).

In test [1] the test system is iron chloride-induced thrombus models. To be noted: mice, intravenous administration; cited from earlier work.
The target of the next test is TAFIa (Homo sapiens (Human), UniProt Q96IY4). As to the kind of experiment: Determination of TAFIa enzyme inhibitory activity (FAAK substrate degradation). Type of test: biochemical. To be noted: read-out: TAFIa IC50. On the procedure: Determination of TAFIa Enzyme Inhibitory Activity
Sequence of TAFIa (Q96IY4 115-423): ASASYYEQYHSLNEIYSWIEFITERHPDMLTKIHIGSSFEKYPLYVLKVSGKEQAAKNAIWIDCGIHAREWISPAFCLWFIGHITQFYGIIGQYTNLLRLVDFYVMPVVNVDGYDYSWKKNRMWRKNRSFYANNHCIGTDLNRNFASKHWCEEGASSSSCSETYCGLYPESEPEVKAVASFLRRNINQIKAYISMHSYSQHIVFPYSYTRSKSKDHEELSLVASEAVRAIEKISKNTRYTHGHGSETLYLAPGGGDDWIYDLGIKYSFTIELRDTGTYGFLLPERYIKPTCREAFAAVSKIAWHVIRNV
HEPES buffered saline (20 mM HEPES, 150 mM NaCl, pH 7.4; hereinafter, referred to as HBS) was used in the preparation of a reaction solution. To 12 μL of a 250 μg/mL TAFI solution, 30 μL of an HBS solution containing 4 U/mL human thrombin, 12 U/mL rabbit lung thrombomodulin, and 12 mM CaCl2 was added, and the mixture was gently stirred. Then, TAFI was activated at room temperature. Ten minutes later, thrombin was neutralized by the addition of 10 μL of 100 μM PPACK (thrombin inhibitor) to terminate the activation of TAFI. The formed TAFIa was stored in ice and diluted immediately before use in determination with 2050 μL of an HBS solution containing BSA (bovine serum albumin) adjusted to 0.1% in terms of the final concentration.
(2) Determination of TAFIa Inhibitory Activity
A test substance was dissolved in HBS to prepare a 10-fold dilution series of evaluation concentrations. 80 μL of the TAFIa solution and 10 μL of the test substance were added to each well of a 96-well plate and mixed by shaking for 10 minutes. 10 μL of furylacryloyl-alanyl-lysine (FAAK) adjusted to 5 mg/mL was added to each well, and the change in the absorbance of this mixed solution at 330 nm was read for 30 minutes to determine the degradation rate of the substrate.
(3) Calculation of Inhibitory Activity IC50
The degradation rate of the substrate in each well was applied to a standard curve prepared using the dilution series of the TAFIa solution to calculate TAFIa activity.

Where [2] appears, read: TAFI activated with human thrombin / rabbit lung thrombomodulin, substrate FAAK, absorbance at 330 nm.

Where two headings read alike, the source gives them in different places.

Take “potato carboxypeptidase inhibitor (PCI) (QQHADPICNKPCKTHDDCSGAWFCQACWNSARTCGPYVG; UniProt P01075 1-39, looked up)”: the antithrombotic effect entry in test [1] is on record as “antithrombotic effect”.

For `Cc1ccc(-n2cnc([C@@]3(C(=O)O)C[C@@H]3CCCN)c2)cc1C` (relative stereo) [Example 10, (1R*,2S*)-2-(3-Aminopropyl)-1-[1-(3,4-dimethylphenyl)-1H-imidazol-4-yl]cyclopropanecarboxylic acid], the IC50 (usually the concentration that gives 50% inhibition) on TAFIa (setting [2]) was 42 nM. Consider `NCCC[C@H]1C[C@]1(C(=O)O)c1cn(-c2ccccc2)cn1` (relative stereo) [Example 6, (1R*,2S*)-2-(3-Aminopropyl)-1-(1-phenyl-1H-imidazol-4-yl)cyclopropanecarboxylic acid], for which the IC50 at TAFIa (setting [2]) came to 27 nM.

As for `NCCC[C@H]1C[C@]1(C(=O)O)c1cn(C2CCCCC2)cn1` (relative stereo) [Example 4, (1R*,2S*)-2-(3-Aminopropyl)-1-(1-cyclohexyl-1H-imidazol-4-yl)cyclopropanecarboxylic acid], on TAFIa (setting [2]), the IC50 was 29 nM. Still for that read-out and setting: the figure for `Cc1ccnc(-n2cnc([C@@]3(C(=O)O)C[C@@H]3CCCN)c2)c1` (relative stereo) [Example 64, (1R*,2S*)-2-(3-Aminopropyl)-1-[1-(4-methylpyridin-2-yl)-1H-imidazol-4-yl]cyclopropanecarboxylic acid] is 19 nM; for `C[C@H](CN)C[C@H]1C[C@]1(C(=O)O)c1cn(-c2ccccc2)cn1` [Example 51, (1R,2S)-2-[(2S)-3-Amino-2-methylpropyl]-1-(1-phenyl-1H-imidazol-4-yl)cyclopropanecarboxylic acid] it is 35 nM. In the case of `CC(C)(C)CCn1cnc([C@@]2(C(=O)O)C[C@@H]2CCCN)c1` [Example 28, (1R,2S)-2-(3-Aminopropyl)-1-[1-(3,3-dimethylbutyl)-1H-imidazol-4-yl]cyclopropanecarboxylic acid], the half-inhibitory concentration (IC50) at TAFIa was 4.5 nM. Turning to `C[C@H](CCN)C1CC1(C(=O)O)c1cn(-c2ccccn2)cn1` (stereo partly drawn) [Example 68, 2-[(2R)-4-Aminobutane-2-yl]-1-[1-(pyridin-2-yl)-1H-imidazol-4-yl)cyclopropanecarboxylic acid], the half-inhibitory concentration (IC50) at TAFIa (setting [2]) came to 12 nM.
